Test results reported in patent US5578608A, “Symmetrical diaryl and diheteroanyl cis epoxy alkanes antiviral compounds” (Eli Lilly and Company, priority 1995, dated 1996).

biological target: T1, HIV-1 protease (Human immunodeficiency virus type 1 group M subtype B, UniProt P04585); test: biochemical; conditions: 16 h incubation at room temperature, MES-ALB buffer pH 5.5; normalized to a positive control; read-out: Fluorescence Assay IC50 (converted)
T1 construct: made in house; host or cells: E. coli K12 L507/pHP10D (NRRL B-18560)
Protocol: A culture of E. coli K12 L507/pHP10D was grown to mid-log phase at 32° C. in LB media containing 12.5 μg/ml tetracycline. The cultivation temperature was quickly elevated to 40° C. to induce gene expression, and the cells were allowed to grow for 2.5 hours at this temperature before the culture was quickly chilled on ice. The cells were centrifuged and the cell pellet was resuspended in 20 mL 50 mmol MES buffer (pH 6.0) containing 1 mmol EDTA, 1 mmol DTT, 1 mmol PMSF and 10% glycerol ("Buffer A"). Cells were lysed by sonication using a Fischer Model 300 Dismembrator and a microtip probe. Following centrifugation at 27,000 x g, the supernatant was diluted to a total volume of 60 mL with Buffer A and loaded onto a 2.0×19 cm QAE-Sepharose column (1 mL/min, 4° C.), that had been equilibrated in Buffer A. The column was washed isocratically for 180 min and then eluted with a gradient eluent of 0-1.0M NaCl in Buffer A over 120 min. Enzymatic activity was measured by HPLC using the synthetic peptide SQNYPIV as described in Margolin et al., Biochem. Biophys. Res. Commun., […], 554-560 (1990); the production of the p1 peptide (SQNY) was measured.
N^a -Biotin-[…]N^e -FITC)-OH SEQ ID NO: 1
The following buffers and solutions are used in the Fluorescence HIV-1 Protease Inhibitor Assay:
To each well of a round bottom, 96-well plate is added 20 μL of the Enzyme Solution followed by 10 μL of the compound to be evaluated in a 20% aqueous dimethylsulfoxide solution. Purified HIV-1 protease was obtained as described above. The resulting solution is incubated for one hour at room temperature and then 20 μL of a solution containing the substrate, N^a -Biotin-[…]N^e-FITC)-OH, in MES-ALB buffer ([…]) is added to each well. The solutions are then incubated for 16 hours at room temperature and then each well is diluted with 150 μL of MES-ALB buffer.
To each well of a second round bottom, 96-well Pandex plate is added 25 uL of the Avidin Coated Beads Solution. Then, to each well is added 25 μL of the diluted incubation solutions, prepared above. The solutions are mixed thoroughly and the plates are loaded into a Pandex® machine, washed, evacuated and read. Sample detection was performed by excitation at 485 nm, reading the resulting epifluorescence at 535 nm.

Row | IC50 [nM] | Compound
1 | 236 | CC[C@H](C)[C@H](NC(=O)OCc1ccccc1)C(=O)N[C@@H](Cc1ccccc1)[C@@H]1O[C@@H]1[C@H](Cc1ccccc1)NC(=O)[C@@H](NC(=O)OCc1ccccc1)[C@@H](C)CC [Example 14]

same assay, conditions: * average IC50; 16 h incubation at room temperature, MES-ALB buffer pH 5.5; normalized to a positive control; read-out: Fluorescence Assay average IC50 (marked *) (converted)

Row | IC50 [nM] | Compound
2 | 248 | CSC[C@@H](NC(=O)OCc1ccccc1)C(=O)N[C@@H](Cc1ccccc1)[C@@H]1O[C@@H]1[C@H](Cc1ccccc1)NC(=O)[C@@H](CSC)NC(=O)OCc1ccccc1 [Example 11, 1,6-Diphenyl-2(S),5(S)-di[N-[2(S)-N(benzyloxycarbonyl)amino-3-methylthiopropanoyl]amino]-3,4-cis-epoxyhexane]

same assay, conditions: at 1000 ng/ml; read-out: Fluorescence Assay, given as ICxx (1000): xx is the percent inhibition

Row | inhibition at 1 µg/mL [%] | Compound
3 | 40 | CCCC[C@H](NC(=O)OCc1ccccn1)C(=O)N[C@@H](Cc1ccccc1)[C@@H]1O[C@@H]1[C@H](Cc1ccccc1)NC(=O)[C@H](CCCC)NC(=O)OCc1ccccn1 [Example 25, 1,6-Diphenyl-2(S),5(S)-di[N-[2(S)-N(pyrid-2-ylmethoxycarbonyl)amino]hexanoyl]amino-3,4-cis-epoxyhexane]
4 | 32 | CC(C)[C@H](NC(=O)N(C)CCc1ccccn1)C(=O)N[C@@H](Cc1ccccc1)[C@@H]1O[C@@H]1[C@H](Cc1ccccc1)NC(=O)[C@@H](NC(=O)N(C)CCc1ccccn1)C(C)C [Example 16, 1,6-Diphenyl-2(S),5(S)-di[N-[2(S)-N-[[N(methyl)-N(pyrid-2-ylethyl)amino]carbonyl]amino-3-methylbutanoyl]amino]-3,4-cis-epoxyhexane]
5 | 26 | CC(C)[C@H](NC(=O)OCc1ccccn1)C(=O)N[C@@H](CCc1ccccc1)[C@@H]1O[C@@H]1[C@H](CCc1ccccc1)NC(=O)[C@@H](NC(=O)OCc1ccccn1)C(C)C [Example 36]
6 | 25 | CC[C@H](C)[C@H](NC(=O)N(C)Cc1ccccn1)C(=O)N[C@@H](Cc1ccc2ccccc2c1)[C@@H]1O[C@@H]1[C@H](Cc1ccc2ccccc2c1)NC(=O)[C@@H](NC(=O)N(C)Cc1ccccn1)[C@@H](C)CC [Example 33, 1,6-Dinaphth-2-yl-2(S),5(S)-di[N-[2(S)-N-[[N(methyl)-N(pyrid-2-ylmethyl)amino]carbonyl]amino-3(S)-methylpentanoyl]amino]-3,4-cis-epoxyhexane]

same assay, conditions: read-out: Fluorescence Assay IC50 (converted)

Row | Compound | IC50 [nM]
7 | CN(Cc1ccc2ccccc2n1)C(=O)N[C@@H](CC#N)C(=O)N[C@@H](Cc1ccccc1)[C@@H]1O[C@@H]1[C@H](Cc1ccccc1)NC(=O)[C@H](CC#N)NC(=O)N(C)Cc1ccc2ccccc2n1 [Example 27, 1,6-Diphenyl-2(S),5(S)-di [N-[2(S)-N[[N(methyl)-N(quinolin-2-ylmethyl)amino]carbonyl]amino-3-cyanopropanoyl]amino]-3,4-cis-epoxyhexane] | 30.7
8 | CC[C@H](NC(=O)N(C)Cc1ccc2ccccc2n1)C(=O)N[C@@H](CCCc1ccccc1)[C@@H]1O[C@@H]1[C@H](CCCc1ccccc1)NC(=O)[C@H](CC)NC(=O)N(C)Cc1ccc2ccccc2n1 [Example 38, 1,10-Diphenyl-4(S),7(S)-di[N-[2(S)-N-[[N(methyl)-N(quinolin-2-ylmethyl)amino]carbonyl]aminobutanoyl]amino]-5,6-cis-epoxydecane] | 23.8
9 | CC[C@H](NC(=O)OCc1ccc2ccccc2n1)C(=O)N[C@@H](Cc1ccccc1)[C@@H]1O[C@@H]1[C@H](Cc1ccccc1)NC(=O)[C@H](CC)NC(=O)OCc1ccc2ccccc2n1 [Example 10, 1,6-Diphenyl-2(S),5(S)-di[N-[2(S)-N[(quinolin-2-ylmethoxy)carbonyl]aminobutanoyl]amino]-3,4-cis-epoxyhexane] | 2.19
10 | CCC[C@H](NC(=O)N(C)Cc1ccc2ccccc2n1)C(=O)N[C@@H](Cc1ccccc1)[C@@H]1O[C@@H]1[C@H](Cc1ccccc1)NC(=O)[C@H](CCC)NC(=O)N(C)Cc1ccc2ccccc2n1 [Example 21, 1,6-Diphenyl-2(S),5(S)-di[N-[2(S)-N[[N(methyl)-N(quinolin-2-ylmethyl)amino]carbonyl]aminopentanoyl]amino]-3,4-cis epoxyhexane] | 66.1
11 | CCCC[C@H](NC(=O)N(C)Cc1ccc2ccccc2n1)C(=O)N[C@@H](Cc1ccccc1)[C@@H]1O[C@@H]1[C@H](Cc1ccccc1)NC(=O)[C@H](CCCC)NC(=O)N(C)Cc1ccc2ccccc2n1 [Example 22, 1,6-Diphenyl-2(S),5(S)-di[N-[2(S)-N[[N(methyl)-N(quinolin-2-ylmethyl)amino]carbonyl]aminohexanoyl]amino]-3,4-cis-epoxyhexane] | 437
12 | CC[C@H](NC(=O)N(C)Cc1ccccn1)C(=O)N[C@@H](Cc1ccccc1)[C@@H]1O[C@@H]1[C@H](Cc1ccccc1)NC(=O)[C@H](CC)NC(=O)N(C)Cc1ccccn1 [Example 28, 1,6-Diphenyl-2(S),5(S)-di[N-[2(S)-N[[N(methyl)-N(pyrid-2-ylmethyl)amino]carbonyl]aminobutanoyl]amino]-3,4-cis-epoxyhexane] | 1090
13 | CC[C@H](C)[C@H](NC(=O)OCc1ccc2ccccc2n1)C(=O)N[C@@H](Cc1ccccc1)[C@@H]1O[C@@H]1[C@H](Cc1ccccc1)NC(=O)[C@@H](NC(=O)OCc1ccc2ccccc2n1)[C@@H](C)CC [Example 15, 1,6-Diphenyl-2(S),5(S)-di[N-[2(S)-N[(quinolin-2-ylmethoxy)carbonyl]amino-3(S)-methylpentanoyl]amino]-3,4-cis-epoxyhexane] | 27.3

More lines, now with the values ahead:

Row | IC50 [nM] | Compound
14 | 880 | N#CC[C@H](NC(=O)OCc1ccccc1)C(=O)N[C@@H](Cc1ccccc1)[C@@H]1O[C@@H]1[C@H](Cc1ccccc1)NC(=O)[C@H](CC#N)NC(=O)OCc1ccccc1 [Example 6, 1,6-Diphenyl-2(S),5(S)-di[N-[2(S)-N(benzyloxycarbonyl)amino-3-cyanopropanoyl]amino]-3,4-cis-epoxyhexane]
15 | 803 | C[C@H](NC(=O)OCc1ccccc1)C(=O)N[C@@H](Cc1ccccc1)[C@@H]1O[C@@H]1[C@H](Cc1ccccc1)NC(=O)[C@H](C)NC(=O)OCc1ccccc1 [Example 20, 1,6-Diphenyl-2(S),5(S)-di[N-[2(S)-N(benzyloxycarbonyl)amino]propanoyl]amino-3,4-cis-epoxyhexane]
16 | 1730 | NC(=O)CC[C@H](NC(=O)OCc1ccccc1)C(=O)N[C@@H](Cc1ccccc1)[C@@H]1O[C@@H]1[C@H](Cc1ccccc1)NC(=O)[C@H](CCC(N)=O)NC(=O)OCc1ccccc1 [Example 12, 1,6-Diphenyl-2(S),5(S)-di[N-[2(S)-N(benzyloxycarbonyl)amino-4-carbamoylbutanoyl]amino]-3,4-cis-epoxyhexane]

same assay, conditions: read-out: Fluorescence Assay average IC50 (marked *) (converted)

Row | IC50 [nM] | Compound
17 | 166 | CC[C@H](C)[C@H](NC(=O)N(C)Cc1ccc2ccccc2n1)C(=O)N[C@@H](Cc1ccccc1)[C@@H]1O[C@@H]1[C@H](Cc1ccccc1)NC(=O)[C@@H](NC(=O)N(C)Cc1ccc2ccccc2n1)[C@@H](C)CC [Example 19, 1,6-Diphenyl-2(S),5(S)-di[N-[2(S)-N[[N(methyl)-N(quinolin-2-ylmethyl)amino]carbonyl]amino-3(S)methylpentanoyl]amino]-3,4-cis-epoxyhexane]
18 | 23.1 | CC(C)[C@H](NC(=O)OCc1ccc2cccc(F)c2n1)C(=O)N[C@@H](Cc1ccccc1)[C@@H]1O[C@@H]1[C@H](Cc1ccccc1)NC(=O)[C@@H](NC(=O)OCc1ccc2cccc(F)c2n1)C(C)C [Example 17, 1,6-Diphenyl-2(S),5(S)-di[N-[2(S)-N[(8-fluoroquinolin-2-ylmethoxy)carbonyl]amino-3-methylbutanoyl]amino]-3,4-cis-epoxyhexane]
19 | 349 | CC(C)[C@H](NC(=O)OCc1ccccn1)C(=O)N[C@@H](Cc1ccccc1)[C@@H]1O[C@@H]1[C@H](Cc1ccccc1)NC(=O)[C@@H](NC(=O)OCc1ccccn1)C(C)C [Example 8, 1,6-Diphenyl-2(S),5(S)-di[N-[2(S)-N(pyrid-2-ylmethoxycarbonyl)amino-3-methylbutanoyl]amino]-3,4-cis-epoxyhexane]
20 | 212 | CC(C)[C@H](NC(=O)OCc1ccccc1)C(=O)N[C@@H](Cc1ccccc1)[C@@H]1O[C@@H]1[C@H](Cc1ccccc1)NC(=O)[C@@H](NC(=O)OCc1ccccc1)C(C)C [Example 1, 1,6-Diphenyl-2(S),5(S)-di[N-[2(S)-N(benzyloxycarbonyl)amino-3-methyl-butanoyl]amino]-3,4-cis-epoxyhexane]
